Experiments:
MycN Protein = molecular target: T1, MycN Protein (Homo sapiens, UniProt P04198); experiment: Degradation of MycN protein, Western blot band density in cells; assay type: cell-based; conditions: HL-60 or SKNBE2 cells; 6 uL of compound (1 mM) added to 3 mL cells; 6 hours; Western blot band density (ImageJ)
T1 construct: endogenous in cells; host or cells: HL-60 or SKNBE2
T1 sequence (P04198 1-464): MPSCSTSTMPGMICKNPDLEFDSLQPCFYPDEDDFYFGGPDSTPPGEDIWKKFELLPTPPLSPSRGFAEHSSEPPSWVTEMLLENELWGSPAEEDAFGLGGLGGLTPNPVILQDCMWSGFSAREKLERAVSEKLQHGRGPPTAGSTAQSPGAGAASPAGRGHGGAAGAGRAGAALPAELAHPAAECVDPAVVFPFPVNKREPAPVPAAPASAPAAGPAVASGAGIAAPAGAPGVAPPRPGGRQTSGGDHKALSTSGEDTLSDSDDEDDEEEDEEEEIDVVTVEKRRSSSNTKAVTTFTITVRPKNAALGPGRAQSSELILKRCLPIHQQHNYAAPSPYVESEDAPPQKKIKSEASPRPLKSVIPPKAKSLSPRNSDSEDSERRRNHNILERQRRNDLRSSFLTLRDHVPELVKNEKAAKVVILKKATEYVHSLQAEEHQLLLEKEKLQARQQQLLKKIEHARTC
How it was run: (§1)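 HL-60 leukemia or SKNBE2 neuroblastoma cells (3×10^6 per well, passages below 40) were exposed for 6 h to compound added from a 1 mM stock. RIPA lysates (25-30 ug protein) were run on SDS-PAGE and immunoblotted for c-Myc or MycN. Band density was quantified from the western images.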

MycC Protein = molecular target: T2, MycC Protein (Homo sapiens, UniProt P01106); experiment: Degradation of MycC protein, Western blot band density in cells; assay type: cell-based; conditions: HL-60 or SKNBE2 cells; 6 uL of compound (1 mM) added to 3 mL cells; 6 hours; Western blot band density (ImageJ)
T2 construct: endogenous in cells; host or cells: HL-60 or SKNBE2
T2 sequence (P01106 whole entry): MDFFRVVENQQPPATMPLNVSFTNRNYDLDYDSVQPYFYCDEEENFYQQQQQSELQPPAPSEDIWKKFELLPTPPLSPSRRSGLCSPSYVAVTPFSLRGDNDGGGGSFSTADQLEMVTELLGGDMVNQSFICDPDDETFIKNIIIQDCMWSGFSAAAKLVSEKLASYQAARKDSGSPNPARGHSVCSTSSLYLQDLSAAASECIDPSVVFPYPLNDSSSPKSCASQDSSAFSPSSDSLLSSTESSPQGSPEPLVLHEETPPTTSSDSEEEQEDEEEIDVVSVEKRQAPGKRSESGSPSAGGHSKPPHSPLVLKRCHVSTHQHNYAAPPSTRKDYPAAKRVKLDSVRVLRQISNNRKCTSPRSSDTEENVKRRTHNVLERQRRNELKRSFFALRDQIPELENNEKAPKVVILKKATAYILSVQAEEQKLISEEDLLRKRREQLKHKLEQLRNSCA
How it was run: as §1

SMILES | Dmax at 2 µM (MycN Protein) [%] | Dmax at 2 µM (MycC Protein) [%] | % Degradation of MycN (MycN Protein) | % Degradation of MycC (MycC Protein)
Cc1cc(Nc2ccnc(N[C@H]3CC[C@H](NC(=O)N[C@@H]4CCC[C@H](C(F)(F)F)C4)CC3)n2)n[nH]1 [Compound 104, 1-((1R,4R)-4-((4-((5-methyl-1H-pyrazol-3-yl)amino)pyrimidin-2-yl)amino)cyclohexyl)-3-((1R,3S)-3-(trifluoromethyl)cyclohexyl)urea] | 20 to 49 | < 20 | – | –
CO[C@H]1c2ccccc2C[C@H]1NC(=O)N[C@H]1CC[C@H](Nc2nccc(Nc3cc(C)[nH]n3)n2)CC1 [Compound 105, 1-((1S,2R)-1-methoxy-2,3-dihydro-1H-inden-2-yl)-3-((1R,4R)-4-((4-((5-methyl-1H-pyrazol-3-yl)amino)pyrimidin-2-yl)amino)cyclohexyl)urea] | < 20 | < 20 | – | –
CN1CC(NCc2ccc3c(c2)CC(NC(=O)N[C@H]2CC[C@H](Nc4nccc(Nc5cc(C6CCCC6)[nH]n5)n4)CC2)C3)C1 (stereo partly drawn) [Compound 107] | < 20 | 50 to 79 | – | –
C/N=C(\Nc1cccc(C(F)(F)F)c1)N[C@H]1CC[C@H](Nc2nccc(Nc3cc(C)[nH]n3)n2)CC1 [Compound 112] | < 20 | < 20 | – | –
Cc1cc(Nc2ccnc(N[C@H]3CC[C@H](NC(=O)NC4Cc5ccc(S(C)(=O)=O)cc5C4)CC3)n2)n[nH]1 (stereo partly drawn) [Compound 115] | < 20 | < 20 | – | –
O=C(N[C@@H]1CCC[C@@H](C(F)(F)F)C1)N[C@H]1CC[C@H](Nc2nccc(Nc3cc(C4CCCC4)[nH]n3)n2)CC1 [Compound 119] | < 20 | < 20 | – | –
Cc1cc(Nc2ccnc(N[C@H]3CC[C@H](NC(=O)N[C@@H]4CCC[C@@H](C(F)(F)F)C4)CC3)n2)n[nH]1 [Compound 120] | < 20 | < 20 | – | –
CN(c1nccc(Nc2cc(C3CCCC3)[nH]n2)n1)C1CCC(NC(=O)N[C@H]2CCC[C@@H](C(F)(F)F)C2)CC1 (stereo partly drawn) [Compound 121 (Fraction 1), 1-((1R,4S)-4-((4-((5-cyclopentyl-1H-pyrazol-3-yl)amino)pyrimidin-2-yl)(methyl)amino)cyclohexyl)-3-((1S,3R)-3-(trifluoromethyl)cyclohexyl)urea] | – | – | *** (***: degradation 50-79%) | *** (***: degradation 50-79%)
CN(c1nccc(Nc2cc(C3CCCC3)[nH]n2)n1)C1CCC(NC(=O)N[C@H]2CCC[C@@H](C(F)(F)F)C2)CC1 (stereo partly drawn) [Compound 121 (Fraction 2), 1-((1R,4S)-4-((4-((5-cyclopentyl-1H-pyrazol-3-yl)amino)pyrimidin-2-yl)(methyl)amino)cyclohexyl)-3-((1S,3R)-3-(trifluoromethyl)cyclohexyl)urea] | – | – | *** (***: degradation 50-79%) | ** (**: degradation 20-49%)
CN(c1nccc(Nc2cc(C3CC3)[nH]n2)n1)[C@H]1CC[C@H](NC(=O)NC2Cc3ccc(C#N)cc3C2)CC1 (stereo partly drawn) [Compound 142, 1-(5-cyano-2,3-dihydro-1H-inden-2-yl)-3-((1R,4R)-4-((4-((5-cyclopropyl-1H-pyrazol-3-yl)amino)pyrimidin-2-yl)(methyl)amino)cyclohexyl)urea] | 80 to 100 | 80 to 100 | – | –
CN(C(=O)NC1Cc2ccc(C#N)cc2C1)[C@H]1CC[C@H](N(C)c2nccc(Nc3cc(C4CCCC4)[nH]n3)n2)CC1 (stereo partly drawn) [Compound 143, 3-(5-cyano-2,3-dihydro-1H-inden-2-yl)-1-((1R,4R)-4-((4-((5-cyclopentyl-1H-pyrazol-3-yl)amino)pyrimidin-2-yl)(methyl)amino)cyclohexyl)-1-methylurea] | 50 to 79 | 50 to 79 | – | –
CN(c1nccc(Nc2cc(C3CCC3)[nH]n2)n1)[C@H]1CC[C@H](NC(=O)NC2Cc3ccc(C#N)cc3C2)CC1 (stereo partly drawn) [Compound 144, 1-(5-cyano-2,3-dihydro-1H-inden-2-yl)-3-((1R,4R)-4-((4-((5-cyclobutyl-1H-pyrazol-3-yl)amino)pyrimidin-2-yl)(methyl)amino)cyclohexyl)urea] | 50 to 79 | 80 to 100 | – | –
CN(c1nccc(Nc2cc(C3CC(F)(F)C3)[nH]n2)n1)[C@H]1CC[C@H](NC(=O)NC2Cc3ccc(C#N)cc3C2)CC1 (stereo partly drawn) [Compound 145, 1-(5-cyano-2,3-dihydro-1H-inden-2-yl)-3-((1R,4R)-4-((4-((5-(3,3-difluorocyclobutyl)-1H-pyrazol-3-yl)amino)pyrimidin-2-yl)(methyl)amino)cyclohexyl)urea] | 80 to 100 | 50 to 79 | – | –
CN(c1nccc(Nc2cc(C3CC4(CC4)C3)[nH]n2)n1)[C@H]1CC[C@H](NC(=O)NC2Cc3ccc(C#N)cc3C2)CC1 (stereo partly drawn) [Compound 148, 1-(5-cyano-2,3-dihydro-1H-inden-2-yl)-3-((1R,4R)-4-(methyl(4-((5-(spiro[2.3]hexan-5-yl)-1H-pyrazol-3-yl)amino)pyrimidin-2-yl)amino)cyclohexyl)urea] | 80 to 100 | 50 to 79 | – | –
CN(c1nccc(Nc2cc(C3CCC(F)(F)C3)[nH]n2)n1)[C@H]1CC[C@H](NC(=O)NC2Cc3ccc(C#N)cc3C2)CC1 (stereo partly drawn) [Compound 149, 1-(5-cyano-2,3-dihydro-1H-inden-2-yl)-3-((1R,4R)-4-((4-((5-(3,3-difluorocyclopentyl)-1H-pyrazol-3-yl)amino)pyrimidin-2-yl)(methyl)amino)cyclohexyl)urea] | 50 to 79 | < 20 | – | –
CN(c1nccc(Nc2cc(C3CC3)[nH]n2)n1)[C@H]1CC[C@H](NC(=O)NC2Cc3ccccc3C2)CC1 [Compound 150, 1-((1R,4R)-4-((4-((5-cyclopropyl-1H-pyrazol-3-yl)amino)pyrimidin-2-yl)(methyl)amino)cyclohexyl)-3-(2,3-dihydro-1H-inden-2-yl)urea] | 80 to 100 | 80 to 100 | – | –
COCCN(c1nccc(Nc2cc(C3CC3)[nH]n2)n1)C1CCC(NC(=O)NC2Cc3ccc(C#N)cc3C2)CC1 [Compound 152, 1-(5-cyano-2,3-dihydro-1H-inden-2-yl)-3-((1R,4R)-4-((4-((5-cyclopropyl-1H-pyrazol-3-yl)amino)pyrimidin-2-yl)(2-methoxyethyl)amino)cyclohexyl)urea] | – | – | **** (****: degradation 80-100%) | **** (****: degradation 80-100%)
CN(C(=O)N[C@H]1CC[C@H](N(C)c2nccc(Nc3cc(C4CCCC4)[nH]n3)n2)CC1)C1Cc2ccc(C#N)cc2C1 (stereo partly drawn) [Compound 153, 1-(5-cyano-2,3-dihydro-1H-inden-2-yl)-3-((1R,4R)-4-((4-((5-cyclopentyl-1H-pyrazol-3-yl)amino)pyrimidin-2-yl)(methyl)amino)cyclohexyl)-1-methylurea] | 20 to 49 | 50 to 79 | – | –

Source: US20210369710A1, “MODULATORS OF MYC FAMILY PROTO-ONCOGENE PROTEIN” (Nalo Therapeutics, priority 2019, published 2021)
